One assay has as its target Toll-like receptor 2 (Homo sapiens, UniProt O60603). The experiment in a line: Agonist activity at human TLR2 transfected in HEK293 cells. Format: cell-based.
In assay [1] the target is Toll-like receptor 1/2 (Mus musculus). As to the kind of experiment: Agonist activity at TLR2/TLR1 in mouse Macrophage cell line.
The target of a further assay is Toll-like receptor 1/2 (Homo sapiens, UniProt O60603+Q15399). As to the kind of experiment: Agonist activity at TLR2/TLR1 in human THP-1 cells. Type of assay: cell-based.
Toll-like receptor 1/2, sequence (O60603 whole entry): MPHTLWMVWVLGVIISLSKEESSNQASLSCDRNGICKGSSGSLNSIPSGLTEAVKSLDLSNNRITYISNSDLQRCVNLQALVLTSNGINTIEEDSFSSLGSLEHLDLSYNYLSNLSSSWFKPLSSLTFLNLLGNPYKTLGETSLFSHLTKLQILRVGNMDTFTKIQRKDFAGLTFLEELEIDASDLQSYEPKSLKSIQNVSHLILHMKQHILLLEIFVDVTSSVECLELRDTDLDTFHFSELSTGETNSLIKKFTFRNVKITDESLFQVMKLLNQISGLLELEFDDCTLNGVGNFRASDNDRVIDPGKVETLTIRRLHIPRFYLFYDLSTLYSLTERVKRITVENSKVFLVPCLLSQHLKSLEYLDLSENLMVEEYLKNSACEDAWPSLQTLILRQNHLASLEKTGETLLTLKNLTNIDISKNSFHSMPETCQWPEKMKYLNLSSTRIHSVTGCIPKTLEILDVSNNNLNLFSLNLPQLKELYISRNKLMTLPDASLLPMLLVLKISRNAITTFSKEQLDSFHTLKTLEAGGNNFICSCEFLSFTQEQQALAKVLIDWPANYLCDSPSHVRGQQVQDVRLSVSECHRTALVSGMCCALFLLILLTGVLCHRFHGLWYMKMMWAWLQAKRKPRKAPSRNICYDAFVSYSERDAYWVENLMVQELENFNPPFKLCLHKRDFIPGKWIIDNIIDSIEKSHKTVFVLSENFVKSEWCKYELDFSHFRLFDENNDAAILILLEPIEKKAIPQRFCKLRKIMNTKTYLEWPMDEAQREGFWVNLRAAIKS
Toll-like receptor 1/2, sequence (Q15399 whole entry): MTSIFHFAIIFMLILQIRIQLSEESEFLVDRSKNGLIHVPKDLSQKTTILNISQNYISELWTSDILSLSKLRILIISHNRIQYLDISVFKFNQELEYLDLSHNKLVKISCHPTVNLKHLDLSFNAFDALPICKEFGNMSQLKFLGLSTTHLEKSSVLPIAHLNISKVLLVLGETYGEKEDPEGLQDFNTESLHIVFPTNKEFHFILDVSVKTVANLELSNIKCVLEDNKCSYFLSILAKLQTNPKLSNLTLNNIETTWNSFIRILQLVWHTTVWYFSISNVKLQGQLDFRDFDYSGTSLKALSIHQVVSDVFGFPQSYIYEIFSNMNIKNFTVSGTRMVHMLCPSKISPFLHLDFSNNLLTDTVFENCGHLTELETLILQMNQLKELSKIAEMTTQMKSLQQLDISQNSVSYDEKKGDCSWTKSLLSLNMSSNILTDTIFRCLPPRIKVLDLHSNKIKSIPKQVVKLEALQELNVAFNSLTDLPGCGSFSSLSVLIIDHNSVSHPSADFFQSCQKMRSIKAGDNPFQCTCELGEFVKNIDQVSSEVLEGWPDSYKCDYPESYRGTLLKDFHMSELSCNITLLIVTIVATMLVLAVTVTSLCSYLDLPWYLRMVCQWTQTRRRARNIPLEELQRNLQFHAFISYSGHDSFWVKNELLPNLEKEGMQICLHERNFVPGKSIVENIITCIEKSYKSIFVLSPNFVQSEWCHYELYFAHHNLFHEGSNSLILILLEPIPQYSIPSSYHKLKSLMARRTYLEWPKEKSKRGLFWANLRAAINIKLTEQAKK

This note sets out measurements from ChEMBL document CHEMBL5226282, “TLR2 Agonistic Small Molecules: Detailed Structure-Activity Relationship, Applications, and Future Prospects” (J Med Chem, 2021).

Toll-like receptor 2, sequence (O60603 whole entry): as the sequence (O60603 whole entry) above

Take `CCCCCCCCCCCC(=O)OC[C@H](CSC[C@@H](N)C(=O)NCCOCCOS(=O)(=O)O)OC(=O)CCCCCCCCCCC`: a half-maximal response at Toll-like receptor 2 (EC50) required 61 nM.

Turning to `CCCCCCCCCCCC(=O)OC[C@H](CSC[C@@H](N)C(=O)NCCc1cccc(O)c1)OC(=O)CCCCCCCCCCC`, the concentration for a half-maximal effect (EC50) at Toll-like receptor 2 is above 21000 nM.

For `CCCCCCCCCCCC(=O)OC[C@H](CSC[C@@H](N)C(=O)NCCc1ccc(Oc2ccccc2)cc1)OC(=O)CCCCCCCCCCC`, a half-maximal response on Toll-like receptor 2 (EC50) required 4080 nM.

With `CCCCCCCCCCCC(=O)OC[C@H](CSC[C@@H](N)C(=O)N[C@@H](CC)COCC(=O)O)OC(=O)CCCCCCCCCCC`, the response on Toll-like receptor 2 was half-maximal at 6500 nM (EC50).

For the molecule `CCCCCCCCCCCC(=O)OC[C@H](CSC[C@@H](N)C(=O)NCCCCN)OC(=O)CCCCCCCCCCC`, the EC50 at Toll-like receptor 2 was 1040 nM.

On to `CCCCCCCCCCCC(=O)OC[C@H](CSC[C@@H](N)C(=O)NCCCS(=O)(=O)O)OC(=O)CCCCCCCCCCC`, for which, at Toll-like receptor 2, the EC50 was 5560 nM.

On Toll-like receptor 2, `CCCCCCCCCCCC(=O)OC[C@H](CSC[C@@H](N)C(=O)NCCOCCOCCOCCC(=O)O)OC(=O)CCCCCCCCCCC` yielded an EC50 of 900 nM.

In turn, `CCCCCCCCCCCC(=O)OC[C@H](CSC[C@@H](N)C(=O)NCCCCCCCCCC(=O)O)OC(=O)CCCCCCCCCCC` yielded an EC50 on Toll-like receptor 2 of 4400 nM.

At Toll-like receptor 2, `CCCCCCCCCCCC(=O)OC[C@H](CSC[C@@H](N)C(=O)NCCCCCCN)OC(=O)CCCCCCCCCCC` returned an EC50 of 1220 nM.

Take `CCCCCCCCCCCC(=O)OC[C@H](CSC[C@@H](N)C(=O)NCCCOCCCCOCCCCN)OC(=O)CCCCCCCCCCC`: the EC50 at Toll-like receptor 2 amounted to 810 nM. This EC50 is about 1.5-fold lower than that of the molecule before.

Regarding `CCCCCCCCCCCCCCCC(=O)OCC(CSC[C@@H](N)C(=O)N[C@@H](CO)C(=O)N[C@@H](CC(N)=O)C(=O)N[C@@H](CC(C)C)C(=O)N[C@H](C(=O)N[C@H](C(=O)N[C@@H](C)C(=O)N[C@@H](CO)C(=O)N[C@@H](CCC(=O)O)C(=O)N[C@H](C(=O)N[C@@H](CC(C)C)C(=O)O)[C@@H](C)O)[C@@H](C)CC)[C@@H](C)CC)OC(=O)CCCCCCCCCCCCCCC` (some centres undefined), the EC50 at Toll-like receptor 2 (hek293) came to 270 nM.

As for `CCCCCCCCCCCC(=O)OC[C@H](CSC[C@@H](N)C(=O)NC(CC)COC)OC(=O)CCCCCCCCCCC` (some centres undefined), the midpoint of the response at Toll-like receptor 2, the EC50, lay at 71.8 nM.

On Toll-like receptor 2, `CCCCCCCCCCCC(=O)OC[C@H](CSC[C@@H](N)C(=O)NCCOCCP(=O)(O)O)OC(=O)CCCCCCCCCCC` returned an EC50 of 119 nM.

In the case of `CCCCCCCCCCCC(=O)OC[C@H](CSC[C@@H](N)C(=O)N[C@@H](CO)C(=O)NCCOCCOCCOCCC(=O)O)OC(=O)CCCCCCCCCCC`, at Toll-like receptor 2, it took 4940 nM to reach a half-maximal effect (EC50).

On to `CCCCCCCCCCCC(=O)OC[C@H](CSC[C@@H](N)C(=O)NCCCn1ccnc1)OC(=O)CCCCCCCCCCC`, for which the EC50 at Toll-like receptor 2 is 410 nM.

As for `CCCCCCCCCCCC(=O)OC[C@H](CSC[C@@H](N)C(=O)NCCc1ccc(OCCC(C)C)cc1)OC(=O)CCCCCCCCCCC`, the EC50 on Toll-like receptor 2 came out at 8170 nM.

`CCCCCCCCCCCC(=O)OC[C@H](CSC[C@@H](N)C(=O)NCCOCCOCCOCCOCCP(=O)(O)O)OC(=O)CCCCCCCCCCC` returned an EC50 at Toll-like receptor 2 of 38 nM.

`CCCCCCCCCCCC(=O)OC[C@H](CSC[C@@H](N)C(=O)NCCOCCOCCN)OC(=O)CCCCCCCCCCC`: a half-maximal effect at Toll-like receptor 2 (EC50) was put at 1290 nM.

For `CCCCCCCCCCCC(=O)OC[C@H](CSC[C@@H](N)C(=O)NCCCOCCOCCOCCCNC(=O)C(N)CS)OC(=O)CCCCCCCCCCC` (some centres undefined), the EC50 on Toll-like receptor 2 amounted to 247 nM. Against the preceding molecule, the EC50 is about 5.2-fold lower.

With `CCCCCCCCCCCC(=O)OC[C@H](CSC[C@@H](N)C(=O)NCCCCCN)OC(=O)CCCCCCCCCCC`, the midpoint of the response on Toll-like receptor 2, the EC50, lay at 1220 nM.

For the molecule `CCCCCCCCCCCC(=O)OC[C@H](CSC[C@@H](N)C(=O)NC(Cc1ccccc1)c1ccccc1)OC(=O)CCCCCCCCCCC` (some centres undefined), it took 68 nM to reach a half-maximal effect on Toll-like receptor 2 (EC50).

On Toll-like receptor 2, `CCCCCCCCCCCC(=O)OC[C@H](CSC[C@@H](N)C(=O)NCCc1ccc(OCCOCCO)cc1)OC(=O)CCCCCCCCCCC` registered an EC50 of 15300 nM.

For the molecule `Cc1cc(C(=O)N2C[C@@H](C(=O)N[C@H]3C[C@@H]3c3ccccc3)[C@H](C(=O)N[C@H]3C[C@@H]3c3ccccc3)C2)c(C)cc1C(=O)N1C[C@@H](C(=O)N[C@H]2C[C@@H]2c2ccccc2)[C@H](C(=O)N[C@H]2C[C@@H]2c2ccccc2)C1`, the EC50 (in assay [1]; at Toll-like receptor 1/2) was above 5000 nM throughout.

For `CCCCCCCCNC(=O)[C@@H]1CN(C(=O)c2ccc(C(=O)N3C[C@@H](C(=O)N[C@H]4C[C@@H]4c4ccccc4)[C@H](C(=O)N[C@@H]4C[C@H]4c4ccccc4)C3)cc2)C[C@H]1C(=O)NCCCCCCCC`, the EC50 came out at 1000 nM in assay [1] and 1 nM on Toll-like receptor 1/2.

Consider `O=C(NCCc1ccc(F)cc1)[C@@H]1CN(C(=O)c2ccc3cc(C(=O)N4C[C@@H](C(=O)NCCc5ccc(F)cc5)[C@H](C(=O)NCCc5ccc(F)cc5)C4)ccc3c2)C[C@H]1C(=O)NCCc1ccc(F)cc1`, for which the EC50 (in assay [1]; at Toll-like receptor 1/2) was above 5000 nM in each case.

For the molecule `O=C(N[C@H]1C[C@@H]1c1ccccc1)[C@@H]1CN(C(=O)c2cc(Br)c(C(=O)N3C[C@@H](C(=O)N[C@H]4C[C@@H]4c4ccccc4)[C@H](C(=O)N[C@H]4C[C@@H]4c4ccccc4)C3)cc2Br)C[C@H]1C(=O)N[C@H]1C[C@@H]1c1ccccc1`, the EC50 in assay [1] is above 5000 nM; on Toll-like receptor 1/2 it was 860 nM.

On to `CCCCCCCCNC(=O)[C@@H]1CN(C(=O)c2ccc(C(=O)N3C[C@@H](C(=O)NCCCCCCCC)[C@H](C(=O)N[C@@H]4C[C@H]4c4ccccc4)C3)cc2)C[C@H]1C(=O)N[C@@H]1C[C@H]1c1ccccc1`, for which the EC50 in assay [1] is 710 nM; on Toll-like receptor 1/2 it was 3.5 nM.

Take `CCCCCCCCNC(=O)[C@@H]1CN(C(=O)c2ccc(C(=O)N3C[C@@H](C(=O)N[C@H]4C[C@@H]4c4ccccc4)[C@H](C(=O)N[C@@H]4C[C@H]4c4ccccc4)C3)cc2)C[C@H]1C(=O)N[C@H]1C[C@@H]1c1ccccc1`: the EC50 amounted to 540 nM in assay [1] and 0.33 nM at Toll-like receptor 1/2.

Take `O=C(N[C@H]1C[C@@H]1c1ccccc1)[C@@H]1CN(C(=O)c2ccc(C(=O)N3C[C@@H](C(=O)N[C@H]4C[C@@H]4c4ccccc4)[C@H](C(=O)N[C@H]4C[C@@H]4c4ccccc4)C3)c(Br)c2)C[C@H]1C(=O)N[C@H]1C[C@@H]1c1ccccc1`: the EC50 (in assay [1]; on Toll-like receptor 1/2) was above 5000 nM each time.

For the molecule `CCCCCCNC(=O)[C@@H]1CN(C(=O)c2ccc(C(=O)N3C[C@@H](C(=O)N[C@H]4C[C@@H]4c4ccccc4)[C@H](C(=O)N[C@@H]4C[C@H]4c4ccccc4)C3)cc2)C[C@H]1C(=O)N[C@H]1C[C@@H]1c1ccccc1`, the values for the EC50 (in assay [1]; at Toll-like receptor 1/2) were 80 nM and 0.25 nM, respectively.

As for `O=C(N[C@H]1C[C@@H]1c1ccc(F)cc1)[C@@H]1CN(C(=O)c2ccc(C(=O)N3C[C@@H](C(=O)N[C@H]4C[C@@H]4c4ccc(F)cc4)[C@H](C(=O)N[C@@H]4C[C@H]4c4ccc(F)cc4)C3)cc2)C[C@H]1C(=O)N[C@H]1C[C@@H]1c1ccc(F)cc1`, the values for the EC50 (in assay [1]; on Toll-like receptor 1/2) were 1.2 nM and 0.13 nM, respectively.

`CCCNC(=O)[C@@H]1CN(C(=O)c2ccc(C(=O)N3C[C@@H](C(=O)N[C@H]4C[C@@H]4c4ccccc4)[C@H](C(=O)N[C@@H]4C[C@H]4c4ccccc4)C3)cc2)C[C@H]1C(=O)N[C@H]1C[C@@H]1c1ccccc1`: the EC50 in assay [1] worked out at 360 nM; at Toll-like receptor 1/2, 17 nM.

On to `O=C(NCCc1ccc(F)cc1)[C@@H]1CN(C(=O)c2ccc(C(=O)N3C[C@@H](C(=O)NCCc4ccc(F)cc4)[C@H](C(=O)NCCc4ccc(F)cc4)C3)c(O)c2)C[C@H]1C(=O)NCCc1ccc(F)cc1`, for which the EC50 is above 5000 nM in assay [1] and 130 nM at Toll-like receptor 1/2.

On to `O=C(NCCc1ccc(F)cc1)[C@@H]1CN(C(=O)C#CC(=O)N2C[C@@H](C(=O)NCCc3ccc(F)cc3)[C@H](C(=O)NCCc3ccc(F)cc3)C2)C[C@H]1C(=O)NCCc1ccc(F)cc1`, for which the EC50 (in assay [1]; on Toll-like receptor 1/2) was above 5000 nM each time.

Consider `CCCCCCCCCCNC(=O)[C@@H]1CN(C(=O)c2ccc(C(=O)N3C[C@@H](C(=O)N[C@H]4C[C@@H]4c4ccccc4)[C@H](C(=O)N[C@@H]4C[C@H]4c4ccccc4)C3)cc2)C[C@H]1C(=O)N[C@H]1C[C@@H]1c1ccccc1`, for which the EC50 in assay [1] turned out to be 650 nM; at Toll-like receptor 1/2, 0.1 nM.

As to `CCCCCCCCCCCCNC(=O)[C@@H]1CN(C(=O)c2ccc(C(=O)N3C[C@@H](C(=O)NCCCCCCCCCCCC)[C@H](C(=O)NCCCCCCCCCCCC)C3)cc2)C[C@H]1C(=O)NCCCCCCCCCCCC`, the EC50 (in assay [1]; on Toll-like receptor 1/2) was above 5 nM in each case.

On to `O=C(N[C@H]1C[C@@H]1c1ccccc1)[C@@H]1CN(C(=O)c2ccc(C(=O)N3C[C@@H](C(=O)N[C@H]4C[C@@H]4c4ccccc4)[C@H](C(=O)N[C@H]4C[C@@H]4c4ccccc4)C3)c3ccccc23)C[C@H]1C(=O)N[C@H]1C[C@@H]1c1ccccc1`, for which the EC50 (in assay [1]; on Toll-like receptor 1/2) was above 5000 nM throughout.

Consider `CCCCCCCCCCCCCCNC(=O)[C@@H]1CN(C(=O)c2ccc(C(=O)N3C[C@@H](C(=O)NCCCCCCCCCCCCCC)[C@H](C(=O)NCCCCCCCCCCCCCC)C3)cc2)C[C@H]1C(=O)NCCCCCCCCCCCCCC`, for which the EC50 (in assay [1]; at Toll-like receptor 1/2) was above 5 nM throughout.

In the case of `COc1ccc([C@H]2C[C@@H]2NC(=O)[C@@H]2CN(C(=O)c3ccc(C(=O)N4C[C@@H](C(=O)N[C@H]5C[C@@H]5c5ccc(OC)cc5)[C@H](C(=O)N[C@@H]5C[C@H]5c5ccc(OC)cc5)C4)cc3)C[C@H]2C(=O)N[C@H]2C[C@@H]2c2ccc(OC)cc2)cc1`, the EC50 (in assay [1]; at Toll-like receptor 1/2) was above 5000 nM in each case.

Consider `O=C(N[C@H]1C[C@@H]1c1ccccc1)[C@@H]1CN(C(=O)Cc2cnc(CC(=O)N3C[C@@H](C(=O)N[C@H]4C[C@@H]4c4ccccc4)[C@H](C(=O)N[C@H]4C[C@@H]4c4ccccc4)C3)cn2)C[C@H]1C(=O)N[C@H]1C[C@@H]1c1ccccc1`, for which the concentration for a half-maximal effect (EC50) was above 5000 nM in assay [1] and 130 nM at Toll-like receptor 1/2.

As to `O=C(N[C@H]1C[C@@H]1c1ccccc1)[C@@H]1CN(C(=O)c2ccc3cc(C(=O)N4C[C@@H](C(=O)N[C@H]5C[C@@H]5c5ccccc5)[C@H](C(=O)N[C@H]5C[C@@H]5c5ccccc5)C4)ccc3c2)C[C@H]1C(=O)N[C@H]1C[C@@H]1c1ccccc1`, the values for the 50% effective concentration (EC50) (in assay [1]; at Toll-like receptor 1/2) were 380 nM and 2 nM, respectively.

`COC(=O)[C@@H]1CN(C(=O)c2ccc(C(=O)N3C[C@@H](C(=O)N[C@@H]4C[C@H]4c4ccccc4)[C@H](C(=O)OC)C3)cc2)C[C@H]1C(=O)N[C@@H]1C[C@H]1c1ccccc1`: the EC50 (in assay [1]; at Toll-like receptor 1/2) was above 5000 nM each time.

`CCCCNC(=O)[C@@H]1CN(C(=O)c2ccc(C(=O)N3C[C@@H](C(=O)NCCCC)[C@H](C(=O)NCCCC)C3)cc2)C[C@H]1C(=O)NCCCC`: the half-maximal effective concentration (EC50) (in assay [1]; at Toll-like receptor 1/2) was above 5 nM each time.
